Results published in patent publication US20230085307A1, “PYRIDAZINONE COMPOUND AND HERBICIDE” (NISSAN CHEMICAL CORPORATION, priority 2019, published 2023).

Legend:
lambsquarters [1] = test: Test Example 5: herbicidal effect by foliage application, plastic box (Table 20, symbol O); type: in vivo, lambsquarters (Chenopodium album); details: foliage application, 320 g/ha
Method in brief: (§1)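 Sow seeds spot-wise in sterilized diluvial soil; cover with ~1.5 cm soil. Grow 14 days in greenhouse, 25° C. to 30° C. Spray foliage with emulsion diluted to predetermined amount. Rate effect after 3 weeks.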

lambsquarters [2] = test: Test Example 4: herbicidal effect by soil treatment (Table 19, symbol O); type: in vivo, lambsquarters (Chenopodium album)
Method in brief: (§2)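 Soil-surface application: an emulsion agent diluted with water to the predetermined dose is sprayed uniformly over seeds lying under roughly 1.5 cm of sterilized diluvial soil. Boxes stay in a greenhouse at 25° C. to 30° C. Three weeks later, each species is graded on previously defined criteria.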

southern crabgrass [3] = test: Test Example 5: herbicidal effect by foliage application, plastic box (Table 20, symbol F); type: in vivo, southern crabgrass (Digitaria ciliaris); details: foliage application, 320 g/ha
Method in brief: as §1

late watergrass = test: Test Example 1: herbicidal activity, application before weed generation under submerged conditions (Table 16, symbol A); type: in vivo, late watergrass (Echinochloa oryzicola)
Method in brief: (§3)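 Alluvial soil was flooded to 4 cm depth, weed seeds were sown mixed and 2.5-leaf rice seedlings were transplanted. On sowing day, the compound's emulsion, diluted in water to a set dose, was applied to the water surface. Plants grew at 25–30 °C and were scored 0–5 after three weeks.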

Italian ryegrass [4] = test: Test Example 4: herbicidal effect by soil treatment (Table 19, symbol K); type: in vivo, Italian ryegrass (Lolium multiflorum)
Method in brief: as §2

oval-leafed pondweed = test: Test Example 1: herbicidal activity, application before weed generation under submerged conditions (Table 16, symbol C); type: in vivo, oval-leafed pondweed (Monochoria vaginalis)
Method in brief: as §3

false cleavers = test: Test Example 4: herbicidal effect by soil treatment (Table 19, symbol Q); type: in vivo, false cleavers (Galium spurium)
Method in brief: as §2

velvetleaf [5] = test: Test Example 5: herbicidal effect by foliage application, plastic box (Table 20, symbol M); type: in vivo, velvetleaf (Abutilon theophrasti); details: foliage application, 320 g/ha
Method in brief: as §1

redroot pigweed [6] = test: Test Example 5: herbicidal effect by foliage application, plastic box (Table 20, symbol N); type: in vivo, redroot pigweed (Amaranthus retroflexus); details: foliage application, 320 g/ha, evaluated three weeks after application
Method in brief: as §1

blackgrass [7] = test: Test Example 5: herbicidal effect by foliage application, plastic box (Table 20, symbol J); type: in vivo, blackgrass (Alopecurus myosuroides); details: foliage application, 320 g/ha
Method in brief: as §1

persian speedwell = test: Test Example 5: herbicidal effect by foliage application, plastic box (Table 20, symbol R); type: in vivo, Persian speedwell (Veronica persica); details: foliage application, 320 g/ha
Method in brief: as §1

Japanese bulrush = test: Test Example 1: herbicidal activity, application before weed generation under submerged conditions (Table 16, symbol B); type: in vivo, Japanese bulrush (Schoenoplectus juncoides)
Method in brief: as §3

green foxtail [8] = test: Test Example 5: herbicidal effect by foliage application, plastic box (Table 20, symbol G); type: in vivo, green foxtail (Setaria viridis); details: foliage application, 320 g/ha
Method in brief: as §1

velvetleaf [9] = test: Test Example 4: herbicidal effect by soil treatment (Table 19, symbol M); type: in vivo, velvetleaf (Abutilon theophrasti)
Method in brief: as §2

chickweed = test: Test Example 5: herbicidal effect by foliage application, plastic box (Table 20, symbol P); type: in vivo, common chickweed (Stellaria media); details: foliage application, 320 g/ha, evaluated three weeks after application
Method in brief: as §1

blackgrass [10] = test: Test Example 4: herbicidal effect by soil treatment (Table 19, symbol J); type: in vivo, blackgrass (Alopecurus myosuroides)
Method in brief: as §2

barnyard grass [11] = test: Test Example 5: herbicidal effect by foliage application, plastic box (Table 20, symbol H); type: in vivo, barnyard grass (Echinochloa crus-galli); details: foliage application, 320 g/ha
Method in brief: as §1

rice flat sedge = test: Test Example 3: herbicidal effect by foliage application, Wagner pot (Table 18, symbol E); type: in vivo, rice flat sedge (Cyperus iria)
Method in brief: (§4)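 Plants were sown in alluvial soil held under 0.1–0.5 cm standing water and grown 14 days in a greenhouse at 25–30 °C. An emulsifiable formulation, water-diluted to the set dose, was then sprayed onto the foliage, and effects were scored three weeks later using previously defined criteria.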

windgrass [12] = test: Test Example 4: herbicidal effect by soil treatment (Table 19, symbol L); type: in vivo, windgrass (Apera spica-venti)
Method in brief: as §2

redroot pigweed [13] = test: Test Example 4: herbicidal effect by soil treatment (Table 19, symbol N); type: in vivo, redroot pigweed (Amaranthus retroflexus)
Method in brief: as §2

barnyard grass [14] = test: Test Example 4: herbicidal effect by soil treatment (Table 19, symbol H); type: in vivo, barnyard grass (Echinochloa crus-galli)
Method in brief: as §2

windgrass [15] = test: Test Example 5: herbicidal effect by foliage application, plastic box (Table 20, symbol L); type: in vivo, windgrass (Apera spica-venti); details: foliage application, 320 g/ha
Method in brief: as §1

Chinese sprangletop = test: Test Example 3: herbicidal effect by foliage application, Wagner pot (Table 18, symbol D); type: in vivo, chinese sprangletop (Leptochloa chinensis)
Method in brief: as §4

green foxtail [16] = test: Test Example 4: herbicidal effect by soil treatment (Table 19, symbol G); type: in vivo, green foxtail (Setaria viridis)
Method in brief: as §2

Italian ryegrass [17] = test: Test Example 5: herbicidal effect by foliage application, plastic box (Table 20, symbol K); type: in vivo, Italian ryegrass (Lolium multiflorum); details: foliage application, 320 g/ha
Method in brief: as §1

barnyard grass [18] = test: Test Example 3: herbicidal effect by foliage application, Wagner pot (Table 18, symbol H); type: in vivo, barnyard grass (Echinochloa crus-galli)
Method in brief: as §4

wild oat [19] = test: Test Example 4: herbicidal effect by soil treatment (Table 19, symbol I); type: in vivo, wild oat (Avena fatua)
Method in brief: as §2

southern crabgrass [20] = test: Test Example 4: herbicidal effect by soil treatment (Table 19, symbol F); type: in vivo, southern crabgrass (Digitaria ciliaris)
Method in brief: as §2

wild oat [21] = test: Test Example 5: herbicidal effect by foliage application, plastic box (Table 20, symbol I); type: in vivo, wild oat (Avena fatua); details: foliage application, 320 g/ha
Method in brief: as §1

[22] = evaluated three weeks after application
[23] = amount of applied herbicide 320 g/ha

`CCCC(=O)Oc1c(C)nn(C)c(=O)c1-c1c(-c2ccc(Cl)c(Cl)c2)sc2ccc(F)cc12` [2-082] was tested, and the “herbicidal effect on O: lambsquarters” value (lambsquarters [1]; [22]) was 3 (Herbicidal rate of 40% or more and less than 70%), the “herbicidal effect rating, O: lambsquarters” value (lambsquarters [2]; 320 g/ha) was 2 (Herbicidal rate of 20% or more and less than 40%) and the “herbicidal effect on F: southern crabgrass” value (southern crabgrass [3]; [22]) was 0 (Herbicidal rate of 5% or less (almost no effect)). The “Herbicidal effect on A: late watergrass (grade 0-5)” value (late watergrass; 320 g/ha applied herbicide) was 2 (Herbicidal rate of 20% or more and less than 40%), the “herbicidal effect rating, K: Italian ryegrass” value (Italian ryegrass [4]; 320 g/ha) was 0 (Herbicidal rate of 5% or less (almost no effect)) and the “Herbicidal effect on C: oval-leafed pondweed (grade 0-5)” value (oval-leafed pondweed; 320 g/ha applied herbicide) was 0 (Herbicidal rate of 5% or less (almost no effect)). The “herbicidal effect rating, Q: false cleavers” value (false cleavers; 320 g/ha) was 0 (Herbicidal rate of 5% or less (almost no effect)), the “herbicidal effect on M: velvetleaf” value (velvetleaf [5]; [22]) was 3 (Herbicidal rate of 40% or more and less than 70%) and the “herbicidal effect on N: redroot pigweed” value (redroot pigweed [6]) was 3 (Herbicidal rate of 40% or more and less than 70%). The “herbicidal effect on J: blackgrass” value (blackgrass [7]; [22]) was 0 (Herbicidal rate of 5% or less (almost no effect)), the “herbicidal effect on R: persian speedwell” value (persian speedwell; [22]) was 3 (Herbicidal rate of 40% or more and less than 70%) and the “Herbicidal effect on B: Japanese bulrush (grade 0-5)” value (Japanese bulrush; 320 g/ha applied herbicide) was 3 (Herbicidal rate of 40% or more and less than 70%). For the same molecule, the “herbicidal effect on G: green foxtail” value (green foxtail [8]; [22]) was 0 (Herbicidal rate of 5% or less (almost no effect)), the “herbicidal effect rating, M: velvetleaf” value (velvetleaf [9]; 320 g/ha) was 0 (Herbicidal rate of 5% or less (almost no effect)) and the “herbicidal effect on P: chickweed” value (chickweed) was 5 (Herbicidal rate of 90% or more (almost completely withered)). The “herbicidal effect rating, J: blackgrass” value (blackgrass [10]; 320 g/ha) was 0 (Herbicidal rate of 5% or less (almost no effect)), the “herbicidal effect on H: barnyard grass” value (barnyard grass [11]; [22]) was 0 (Herbicidal rate of 5% or less (almost no effect)) and the “herbicidal effect on E (rice flat sedge), rating 0-5” value (rice flat sedge; 320 g/ha) was 4 (Herbicidal rate of 70% or more and less than 90%). The “herbicidal effect rating, L: windgrass” value (windgrass [12]; 320 g/ha) was 0 (Herbicidal rate of 5% or less (almost no effect)), the “herbicidal effect rating, N: redroot pigweed” value (redroot pigweed [13]; 320 g/ha) was 3 (Herbicidal rate of 40% or more and less than 70%) and the “herbicidal effect rating, H: barnyard grass” value (barnyard grass [14]; 320 g/ha) was 0 (Herbicidal rate of 5% or less (almost no effect)). The “herbicidal effect on L: windgrass” value (windgrass [15]; [22]) was 0 (Herbicidal rate of 5% or less (almost no effect)), the “herbicidal effect on D (Chinese sprangletop), rating 0-5” value (Chinese sprangletop; 320 g/ha) was 2 (Herbicidal rate of 20% or more and less than 40%) and the “herbicidal effect rating, G: green foxtail” value (green foxtail [16]; 320 g/ha) was 0 (Herbicidal rate of 5% or less (almost no effect)). The “herbicidal effect on K: Italian ryegrass” value (Italian ryegrass [17]; [22]) was 0 (Herbicidal rate of 5% or less (almost no effect)), the “herbicidal effect on H (barnyard grass), rating 0-5” value (barnyard grass [18]; 320 g/ha) was 4 (Herbicidal rate of 70% or more and less than 90%) and the “herbicidal effect rating, I: wild oat” value (wild oat [19]; 320 g/ha) was 0 (Herbicidal rate of 5% or less (almost no effect)). For the same molecule, the “herbicidal effect rating, F: southern crabgrass” value (southern crabgrass [20]; 320 g/ha) was 1 (Herbicidal rate of 5% or more and less than 20%) and the “herbicidal effect on I: wild oat” value (wild oat [21]; [22]) was 0 (Herbicidal rate of 5% or less (almost no effect)).
In the case of `COCc1ccc(-c2oc3ccc(F)cc3c2-c2c(O)c(C)nn(C)c2=O)cc1` [9-043], the “herbicidal effect on lambsquarters (O)” value (lambsquarters [1]; three weeks after application) is reported as 4 (Herbicidal rate of 70% or more and less than 90%), the “O: lambsquarters, herbicidal effect grade” value (lambsquarters [2]; [23]) is reported as 3 (Herbicidal rate of 40% or more and less than 70%) and the “herbicidal effect on southern crabgrass (F)” value (southern crabgrass [3]; three weeks after application) is reported as 3 (Herbicidal rate of 40% or more and less than 70%). For the same molecule, the “Herbicidal effect, A: late watergrass” value (late watergrass; [23]) was 3 (Herbicidal rate of 40% or more and less than 70%), the “K: Italian ryegrass, herbicidal effect grade” value (Italian ryegrass [4]; [23]) was 5 (Herbicidal rate of 90% or more (almost completely withered)) and the “Herbicidal effect, C: oval-leafed pondweed” value (oval-leafed pondweed; [23]) was 2 (Herbicidal rate of 20% or more and less than 40%). The “Q: false cleavers, herbicidal effect grade” value (false cleavers; [23]) was 0 (Herbicidal rate of 5% or less (almost no effect)), the “herbicidal effect on velvetleaf (M)” value (velvetleaf [5]; three weeks after application) was 4 (Herbicidal rate of 70% or more and less than 90%) and the “herbicidal effect on blackgrass (J)” value (blackgrass [7]; three weeks after application) was 4 (Herbicidal rate of 70% or more and less than 90%). For the same molecule, the “herbicidal effect on persian speedwell (R)” value (persian speedwell; three weeks after application) was 5 (Herbicidal rate of 90% or more (almost completely withered)), the “Herbicidal effect, B: Japanese bulrush” value (Japanese bulrush; [23]) was 0 (Herbicidal rate of 5% or less (almost no effect)) and the “herbicidal effect on green foxtail (G)” value (green foxtail [8]; three weeks after application) was 4 (Herbicidal rate of 70% or more and less than 90%). The “M: velvetleaf, herbicidal effect grade” value (velvetleaf [9]; [23]) was 4 (Herbicidal rate of 70% or more and less than 90%), the “J: blackgrass, herbicidal effect grade” value (blackgrass [10]; [23]) was 4 (Herbicidal rate of 70% or more and less than 90%) and the “herbicidal effect on barnyard grass (H)” value (barnyard grass [11]; three weeks after application) was 3 (Herbicidal rate of 40% or more and less than 70%). For the same molecule, the “Herbicidal effect on E (rice flat sedge), foliage application” value (rice flat sedge; [23]) was 5 (Herbicidal rate of 90% or more (almost completely withered)), the “L: windgrass, herbicidal effect grade” value (windgrass [12]; [23]) was 0 (Herbicidal rate of 5% or less (almost no effect)) and the “N: redroot pigweed, herbicidal effect grade” value (redroot pigweed [13]; [23]) was 5 (Herbicidal rate of 90% or more (almost completely withered)). For the same molecule, the “H: barnyard grass, herbicidal effect grade” value (barnyard grass [14]; [23]) was 4 (Herbicidal rate of 70% or more and less than 90%), the “herbicidal effect on windgrass (L)” value (windgrass [15]; three weeks after application) was 0 (Herbicidal rate of 5% or less (almost no effect)) and the “Herbicidal effect on D (Chinese sprangletop), foliage application” value (Chinese sprangletop; [23]) was 3 (Herbicidal rate of 40% or more and less than 70%). The “G: green foxtail, herbicidal effect grade” value (green foxtail [16]; [23]) was 5 (Herbicidal rate of 90% or more (almost completely withered)), the “herbicidal effect on Italian ryegrass (K)” value (Italian ryegrass [17]; three weeks after application) was 5 (Herbicidal rate of 90% or more (almost completely withered)) and the “Herbicidal effect on H (barnyard grass), foliage application” value (barnyard grass [18]; [23]) was 4 (Herbicidal rate of 70% or more and less than 90%). The “I: wild oat, herbicidal effect grade” value (wild oat [19]; [23]) was 0 (Herbicidal rate of 5% or less (almost no effect)), the “F: southern crabgrass, herbicidal effect grade” value (southern crabgrass [20]; [23]) was 4 (Herbicidal rate of 70% or more and less than 90%) and the “herbicidal effect on wild oat (I)” value (wild oat [21]; three weeks after application) was 0 (Herbicidal rate of 5% or less (almost no effect)).
